# Measured values taken from publication PMC10743905, “Design, Synthesis, and In Vitro and In Vivo Bioactivity Studies of Hydrazide–Hydrazones of 2,4-Dihydroxybenzoic Acid” (International Journal of Molecular Sciences, 2023).
# Like-named read-outs stand apart in the source and are kept apart here.
# Tests used:
# Format in all cases: cell-based
# [1] = tested on: Escherichia coli ATCC 25922; experiment: Broth microdilution MIC/MBC; details: for MBC / MIC: ATCC25922
# Procedure, shortened: (§1)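 Preliminary agar screening used 2 mg/mL compound with incubation at 37°C for 24 h (bacteria) or 30°C for 48 h (fungi). Subsequent MIC determination: two-fold broth microdilution, 1000 to 0.488 µg/ml final.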
# [2] = tested on: Enterococcus faecalis ATCC 29212; experiment: Broth microdilution MIC/MBC; details: for MBC: ATCC29212, read-out: MBC; for MIC: ATCC29212, read-out: MIC
# Procedure, shortened: as §1
# [3] = tested on: Bacillus cereus ATCC 10876; experiment: Broth microdilution MIC/MBC; details: for MBC: ATCC10876
# Procedure, shortened: as §1
# [4] = tested on: Bordetella bronchiseptica ATCC 4617; experiment: Broth microdilution MIC/MBC; details: for MBC / MIC: ATCC4617
# Procedure, shortened: as §1
# [5] = tested on: Klebsiella pneumoniae ATCC 13883; experiment: Broth microdilution MIC/MBC; details: for MBC / MIC: ATCC13883
# Procedure, shortened: as §1
# [6] = tested on: Bacillus subtilis ATCC 6633; experiment: Broth microdilution MIC/MBC; details: for MBC: ATCC6633
# Procedure, shortened: as §1
# [7] = tested on: Candida glabrata ATCC 90030; experiment: Broth microdilution MIC/MFC; details: for MFC / MIC: Nakaseomyces glabratus; for MFC: ATCC90030, read-out: MFC; for MIC: ATCC90030, read-out: MIC
# Procedure, shortened: as §1
# [8] = tested on: Candida parapsilosis ATCC 22019; experiment: Broth microdilution MIC/MFC; details: for MFC / MIC: Lodderomyces parapsilosis; for MFC: ATCC22019, read-out: MFC; for MIC: ATCC22019, read-out: MIC
# Procedure, shortened: as §1
# [9] = tested on: Candida albicans ATCC 2091; experiment: Broth microdilution MIC/MFC; details: for MIC: ATCC2091, read-out: MIC; for MFC: ATCC2091, read-out: MFC
# Procedure, shortened: as §1
# [10] = tested on: Candida krusei ATCC 14243; experiment: Broth microdilution MIC/MFC; details: for MIC / MFC: Pichia kudriavzevii; for MIC: ATCC14243, read-out: MIC; for MFC: ATCC14243, read-out: MFC
# Procedure, shortened: as §1
# [11] = tested on: Candida albicans ATCC 10231; experiment: Broth microdilution MIC/MFC; details: for MFC: ATCC10231, read-out: MFC; for MIC: ATCC10231, read-out: MIC
# Procedure, shortened: as §1
# [12] = tested on: Salmonella typhimurium ATCC 14028; experiment: Broth microdilution MIC/MBC; details: for MBC / MIC: Salmonella enterica
# Procedure, shortened: as §1
# [13] = tested on: Pseudomonas aeruginosa ATCC 9027; experiment: Broth microdilution MIC/MBC; details: for MBC / MIC: ATCC9027
# Procedure, shortened: as §1
# [14] = tested on: Proteus mirabilis ATCC 12453; experiment: Broth microdilution MIC/MBC; details: for MBC / MIC: ATCC12453
# Procedure, shortened: as §1
# [15] = tested on: Staphylococcus aureus ATCC 43300; experiment: Broth microdilution MIC/MBC; details: Staphylococcus aureus ATCC 43300 (MRSA)
# Procedure, shortened: as §1
# [16] = tested on: Micrococcus luteus ATCC 10240; experiment: Broth microdilution MIC/MBC; details: for MBC: ATCC10240
# Procedure, shortened: as §1
compound,measurement,setting,value
"CCCc1ccc(/C=N/NC(=O)c2ccc(O)cc2O)cc1 [Compound 13, 2,4-dihydroxy-N-[(4-propylphenyl)methylidene]benzohydrazide]",MBC/MIC,[1],> 1
same,MBC,[1],> 1000 µg/mL
same,MIC,[1],1000 µg/mL
same,MBC/MIC,[2],> 1
same,MBC,[2],> 1000 µg/mL
same,MIC,[2],1000 µg/mL
same,MBC/MIC,[3],> 1
same,MBC,[3],> 1000 µg/mL
same,MIC,"[3]; ATCC10876, read-out: MIC",1000 µg/mL
same,MBC/MIC,[4],> 1
same,MBC,[4],> 1000 µg/mL
same,MIC,[4],1000 µg/mL
same,MBC/MIC,[5],> 1
same,MBC,[5],> 1000 µg/mL
same,MIC,[5],1000 µg/mL
same,MBC/MIC,[6],> 1
same,MBC,[6],> 1000 µg/mL
same,MIC,"[6]; ATCC6633, read-out: MIC",1000 µg/mL
same,MFC/MIC,[7],> 1
same,MFC,[7],> 1000 µg/mL
same,MIC,[7],1000 µg/mL
same,MFC/MIC,[8],> 1
same,MFC,[8],> 1000 µg/mL
same,MIC,[8],1000 µg/mL
same,MIC,[9],> 1000 µg/mL
same,MIC,[10],> 1000 µg/mL
same,MFC/MIC,[11],> 1
same,MFC,[11],> 1000 µg/mL
same,MIC,[11],1000 µg/mL
same,MBC/MIC,[12],> 1
same,MBC,[12],> 1000 µg/mL
same,MIC,[12],1000 µg/mL
same,MBC/MIC,[13],> 1
same,MBC,[13],> 1000 µg/mL
same,MIC,[13],1000 µg/mL
same,MBC/MIC,[14],> 1
same,MBC,[14],> 1000 µg/mL
same,MIC,[14],1000 µg/mL
same,MBC,[15],> 1000 µg/mL
same,MBC/MIC,[15],> 1
same,MIC,[15],1000 µg/mL
same,MBC/MIC,[16],> 1
same,MBC,[16],> 1000 µg/mL
same,MIC,"[16]; ATCC10240, read-out: MIC",1000 µg/mL
"O=C(N/N=C/c1cc(I)cc(I)c1O)c1ccc(O)cc1O [Compound 18, 2,4-dihydroxy-N-[(2-hydroxy-3,5-diiodophenyl)methylidene]benzohydrazide]",MBC/MIC,[1],> 2
same,MBC,[1],> 1000 µg/mL
same,MIC,[1],500 µg/mL
same,MBC/MIC,[2],4
same,MBC,[2],15.6 µg/mL
same,MIC,[2],3.91 µg/mL
same,MBC/MIC,[3],4
same,MIC,[3],3.91 µg/mL
same,MBC,[3],15.6 µg/mL
same,MIC,"[3]; ATCC10876, read-out: MIC",3.91 µg/mL
same,MBC/MIC,[4],> 2
same,MBC,[4],> 1000 µg/mL
same,MIC,[4],500 µg/mL
same,MBC/MIC,[5],> 2
same,MBC,[5],> 1000 µg/mL
same,MIC,[5],500 µg/mL
same,MBC/MIC,[6],2
same,MIC,[6],1.95 µg/mL
same,MBC,[6],3.91 µg/mL
same,MIC,"[6]; ATCC6633, read-out: MIC",1.95 µg/mL
same,MFC/MIC,[7],> 1
same,MFC,[7],> 1000 µg/mL
same,MIC,[7],1000 µg/mL
same,MFC/MIC,[8],> 2
same,MFC,[8],> 1000 µg/mL
same,MIC,[8],500 µg/mL
same,MFC/MIC,[9],> 2
same,MFC,[9],> 1000 µg/mL
same,MIC,[9],500 µg/mL
same,MFC/MIC,[10],> 1
same,MFC,[10],> 1000 µg/mL
same,MIC,[10],1000 µg/mL
same,MFC/MIC,[11],> 1
same,MFC,[11],> 1000 µg/mL
same,MIC,[11],1000 µg/mL
same,MBC/MIC,[12],> 1
same,MBC,[12],> 1000 µg/mL
same,MIC,[12],1000 µg/mL
same,MBC/MIC,[13],> 1
same,MBC,[13],> 1000 µg/mL
same,MIC,[13],1000 µg/mL
same,MBC/MIC,[14],> 2
same,MBC,[14],> 1000 µg/mL
same,MIC,[14],500 µg/mL
same,MBC,[15],31.2 µg/mL
same,MBC/MIC,[15],8
same,MIC,[15],3.91 µg/mL
same,MBC/MIC,[16],4
same,MIC,[16],0.48 µg/mL
same,MBC,[16],1.95 µg/mL
same,MIC,"[16]; ATCC10240, read-out: MIC",0.48 µg/mL
"O=C(N/N=C/c1ccccc1[N+](=O)[O-])c1ccc(O)cc1O [Compound 19, 2,4-dihydroxy-N-[(2-nitrophenyl)methylidene]benzohydrazide]",MBC/MIC,[1],> 1
same,MBC,[1],> 1000 µg/mL
same,MIC,[1],1000 µg/mL
same,MBC/MIC,[2],> 2
same,MBC,[2],> 1000 µg/mL
same,MIC,[2],500 µg/mL
same,MBC/MIC,[3],> 4
same,MBC,[3],> 1000 µg/mL
same,MIC,"[3]; ATCC10876, read-out: MIC",250 µg/mL
same,MBC/MIC,[4],> 1
same,MBC,[4],> 1000 µg/mL
same,MIC,[4],1000 µg/mL
same,MBC/MIC,[5],> 1
same,MBC,[5],> 1000 µg/mL
same,MIC,[5],500 µg/mL
same,MBC/MIC,[6],> 4
same,MBC,[6],> 1000 µg/mL
same,MIC,"[6]; ATCC6633, read-out: MIC",250 µg/mL
same,MFC/MIC,[7],> 2
same,MFC,[7],> 1000 µg/mL
same,MIC,[7],500 µg/mL
same,MFC/MIC,[8],> 4
same,MFC,[8],> 1000 µg/mL
same,MIC,[8],250 µg/mL
same,MFC/MIC,[9],> 2
same,MFC,[9],> 1000 µg/mL
same,MIC,[9],500 µg/mL
same,MFC/MIC,[10],> 2
same,MFC,[10],> 1000 µg/mL
same,MIC,[10],500 µg/mL
same,MFC/MIC,[11],> 4
same,MFC,[11],> 1000 µg/mL
same,MIC,[11],250 µg/mL
same,MBC/MIC,[12],> 1
same,MBC,[12],> 1000 µg/mL
same,MIC,[12],1000 µg/mL
same,MBC/MIC,[13],> 1
same,MBC,[13],> 1000 µg/mL
same,MIC,[13],1000 µg/mL
same,MBC/MIC,[14],> 1
same,MBC,[14],> 1000 µg/mL
same,MIC,[14],1000 µg/mL
same,MBC,[15],> 1000 µg/mL
same,MBC/MIC,[15],> 2
same,MIC,[15],500 µg/mL
same,MBC/MIC,[16],> 1
same,MBC,[16],> 1000 µg/mL
same,MIC,"[16]; ATCC10240, read-out: MIC",1000 µg/mL
"O=C(N/N=C/c1cccc([N+](=O)[O-])c1)c1ccc(O)cc1O [Compound 20, 2,4-dihydroxy-N-[(3-nitrophenyl)methylidene]benzohydrazide]",MIC,[1],> 1000 µg/mL
same,MIC,[2],> 1000 µg/mL
same,MIC,"[3]; ATCC10876, read-out: MIC",> 1000 µg/mL
same,MIC,[4],> 1000 µg/mL
same,MIC,[5],> 1000 µg/mL
same,MBC/MIC,[6],> 4
same,MBC,[6],> 1000 µg/mL
same,MIC,"[6]; ATCC6633, read-out: MIC",250 µg/mL
same,MIC,[7],> 1000 µg/mL
same,MFC/MIC,[8],> 1
same,MFC,[8],> 1000 µg/mL
same,MIC,[8],1000 µg/mL
same,MIC,[9],> 1000 µg/mL
same,MIC,[10],> 1000 µg/mL
same,MFC/MIC,[11],> 1
same,MFC,[11],> 1000 µg/mL
same,MIC,[11],1000 µg/mL
same,MIC,[12],> 1000 µg/mL
same,MIC,[13],> 1000 µg/mL
same,MIC,[14],> 1000 µg/mL
same,MIC,[15],> 1000 µg/mL
same,MIC,"[16]; ATCC10240, read-out: MIC",> 1000 µg/mL
